What is called GI50 is the concentration that inhibits growth by half.

This experiment has as its system multidrug-resistant Dd2 P. falciparum parasites. Put plainly: growth inhibition assay. It counts as cell-based. As to conditions: Plasmodium falciparum, DD2, 72 h, read-out: Dd2 GI50, Dd2 intraerythrocytic parasites, 72 h, DAPI.

The structures appear in SMILES notation. Bounds are passed on as bounds.

In the case of `C[C@@H]1CN([C@@H](C)CO)C(=O)c2cc(NC(=O)Nc3ccccc3)ccc2O[C@@H](C)CCCCO[C@H]1CN(C)C(=O)OC(C)(C)C` [Compound 17], the GI50 is greater than 1400 nM.
For the molecule `C[C@@H]1CN(CCO)C(=O)c2cc(NC(=O)Nc3ccccc3)ccc2O[C@@H](C)CCCCO[C@H]1CN(C)S(=O)(=O)c1ccc(F)cc1` [Compound 30], the 50% growth inhibitory concentration (GI50) was 630 nM.

For the origin of these results see publication PMC3276110 (ACS Medicinal Chemistry Letters, 2011).
